Columns and labels:
Assay type in all cases: in vivo
rice = assay: post-emergence stage experiment, crop (Table 1); set-up: key: Level 10: completely dead; Level 9: above 95% growth control rate; Level 8: above 90% growth control rate; Level 7: above 80% growth control rate; Level 6: above 70% growth control rate; Level 5: above 60% growth control rate; Level 4: above 50% growth control rate; Level 3: above 20% growth control rate; Level 2: 5%-20% growth control rate; Level 1: below 5% growth control rate; conditions: post-emergence spray at 4-5 leaf stage, 250 g/ha active ingredient with 450 kg/ha water, rated after 3 weeks in greenhouse
How it was run: (§1)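 Seeds were sown in pots, covered with 0.5-2 cm soil and grown in a greenhouse. At the 4-5 leaf stage, plants were sprayed with the test compound formulated in acetone, Tween 80 and water. Fresh weight control was rated after 3 weeks.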

rorippa indica = assay: weed control effect in post-emergence stage (Table 1); set-up: key: Level 10: completely dead; Level 9: above 95% growth control rate; Level 8: above 90% growth control rate; Level 7: above 80% growth control rate; Level 6: above 70% growth control rate; Level 5: above 60% growth control rate; Level 4: above 50% growth control rate; Level 3: above 20% growth control rate; Level 2: 5%-20% growth control rate; Level 1: below 5% growth control rate; conditions: post-emergence spray at 4-5 leaf stage, 250 g/ha active ingredient with 450 kg/ha water, rated after 3 weeks in greenhouse
How it was run: as §1

foxtail = assay: as above; set-up: key: Level 10: completely dead; Level 9: above 95% growth control rate; Level 8: above 90% growth control rate; Level 7: above 80% growth control rate; Level 6: above 70% growth control rate; Level 5: above 60% growth control rate; Level 4: above 50% growth control rate; Level 3: above 20% growth control rate; Level 2: 5%-20% growth control rate; Level 1: below 5% growth control rate; conditions: post-emergence spray at 4-5 leaf stage, 250 g/ha active ingredient with 450 kg/ha water, rated after 3 weeks in greenhouse
How it was run: as §1

Indian mallow = assay: as above; set-up: key: Level 10: completely dead; Level 9: above 95% growth control rate; Level 8: above 90% growth control rate; Level 7: above 80% growth control rate; Level 6: above 70% growth control rate; Level 5: above 60% growth control rate; Level 4: above 50% growth control rate; Level 3: above 20% growth control rate; Level 2: 5%-20% growth control rate; Level 1: below 5% growth control rate; conditions: post-emergence spray at 4-5 leaf stage, 250 g/ha active ingredient with 450 kg/ha water, rated after 3 weeks in greenhouse
How it was run: as §1

echinochloa = assay: as above; set-up: key: Level 10: completely dead; Level 9: above 95% growth control rate; Level 8: above 90% growth control rate; Level 7: above 80% growth control rate; Level 6: above 70% growth control rate; Level 5: above 60% growth control rate; Level 4: above 50% growth control rate; Level 3: above 20% growth control rate; Level 2: 5%-20% growth control rate; Level 1: below 5% growth control rate; conditions: post-emergence spray at 4-5 leaf stage, 250 g/ha active ingredient with 450 kg/ha water, rated after 3 weeks in greenhouse
How it was run: as §1

bidens bipinnata = assay: as above; set-up: key: Level 10: completely dead; Level 9: above 95% growth control rate; Level 8: above 90% growth control rate; Level 7: above 80% growth control rate; Level 6: above 70% growth control rate; Level 5: above 60% growth control rate; Level 4: above 50% growth control rate; Level 3: above 20% growth control rate; Level 2: 5%-20% growth control rate; Level 1: below 5% growth control rate; conditions: post-emergence spray at 4-5 leaf stage, 250 g/ha active ingredient with 450 kg/ha water, rated after 3 weeks in greenhouse
How it was run: as §1

crab grass = assay: as above; set-up: key: Level 10: completely dead; Level 9: above 95% growth control rate; Level 8: above 90% growth control rate; Level 7: above 80% growth control rate; Level 6: above 70% growth control rate; Level 5: above 60% growth control rate; Level 4: above 50% growth control rate; Level 3: above 20% growth control rate; Level 2: 5%-20% growth control rate; Level 1: below 5% growth control rate; conditions: post-emergence spray at 4-5 leaf stage, 250 g/ha active ingredient with 450 kg/ha water, rated after 3 weeks in greenhouse
How it was run: as §1

wheat [1] = assay: post-emergence stage experiment, crop (Table 1); conditions: post-emergence spray at 4-5 leaf stage, 250 g/ha active ingredient with 450 kg/ha water, rated after 3 weeks in greenhouse
How it was run: as §1

corn = assay: post-emergence stage experiment, crop (Table 1); conditions: post-emergence spray at 4-5 leaf stage, 250 g/ha active ingredient with 450 kg/ha water, rated after 3 weeks in greenhouse
How it was run: as §1

shepherd's purse = assay: wheat field resistant broadleaf weed control, greenhouse spray at 4 leaf stage; set-up: key: Level 10: completely dead; Level 9: above 95% growth control rate; Level 8: above 90% growth control rate; Level 7: above 80% growth control rate; Level 6: above 70% growth control rate; Level 5: above 60% growth control rate; Level 4: above 50% growth control rate; Level 3: above 20% growth control rate; Level 2: 5%-20% growth control rate; Level 1: below 5% growth control rate; conditions: 250 g/ha of the active substance; 4 weeks after treatment; ALS inhibitor resistant
How it was run: (§2)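 Compounds in acetone were mixed with methyl oleate emulsion, diluted with water and applied with a sprayer to greenhouse plants at the 4 leaf stage. Growth control, expressed as fresh weight control rate, was assessed after 4 weeks of further culture.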

corn gromwell = assay: as above; set-up: key: Level 10: completely dead; Level 9: above 95% growth control rate; Level 8: above 90% growth control rate; Level 7: above 80% growth control rate; Level 6: above 70% growth control rate; Level 5: above 60% growth control rate; Level 4: above 50% growth control rate; Level 3: above 20% growth control rate; Level 2: 5%-20% growth control rate; Level 1: below 5% growth control rate; conditions: 250 g/ha of the active substance; 4 weeks after treatment; ALS inhibitor resistant
How it was run: as §2

flixweed = assay: as above; set-up: key: Level 10: completely dead; Level 9: above 95% growth control rate; Level 8: above 90% growth control rate; Level 7: above 80% growth control rate; Level 6: above 70% growth control rate; Level 5: above 60% growth control rate; Level 4: above 50% growth control rate; Level 3: above 20% growth control rate; Level 2: 5%-20% growth control rate; Level 1: below 5% growth control rate; conditions: 250 g/ha of the active substance; 4 weeks after treatment; ALS inhibitor resistant
How it was run: as §2

chickweed = assay: as above; set-up: key: Level 10: completely dead; Level 9: above 95% growth control rate; Level 8: above 90% growth control rate; Level 7: above 80% growth control rate; Level 6: above 70% growth control rate; Level 5: above 60% growth control rate; Level 4: above 50% growth control rate; Level 3: above 20% growth control rate; Level 2: 5%-20% growth control rate; Level 1: below 5% growth control rate; conditions: 250 g/ha of the active substance; 4 weeks after treatment; ALS inhibitor resistant
How it was run: as §2

wheat [2] = assay: wheat field test, crop selectivity, greenhouse spray at 4 leaf stage; conditions: 250 g/ha of the active substance; 4 weeks after treatment
How it was run: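 Seeds sown in soil-filled pots, covered 0.5-2 cm, greenhouse-grown; sprayed at 4 leaf stage (2-3 wk); acetone/methyl oleate emulsion/water formulation; 4 wk greenhouse; fresh wt control rate.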

SMILES | effect on crop, Rice (level) (rice) | weed control effect, Rorippa indica (level) (rorippa indica) | weed control effect, Green foxtail (level) (foxtail) | weed control effect, Indian mallow (level) (Indian mallow) | weed control effect, Echinochloa (level) (echinochloa) | weed control effect, Bidens bipinnata (level) (bidens bipinnata) | weed control effect, Crab grass (level) (crab grass) | effect on crop, Wheat (level) (wheat [1]) | effect on crop, Corn (level) (corn) | shepherd's purse weed controlling effect (activity level) (shepherd's purse) | corn gromwell weed controlling effect (activity level) (corn gromwell) | flixweed weed controlling effect (activity level) (flixweed) | chickweed weed controlling effect (activity level) (chickweed) | Wheat (activity level, crop damage) (wheat [2])
CCc1nn(C)c(OC(=O)c2cn(C)nc2C)c1C(=O)c1ccc(C(F)(F)F)c(N2CCCCCC2=O)c1Cl [Compound 121] | 6 (Level 6: above 70% growth control rate) | 10 | 9 (Level 9: above 95% growth control rate) | 5 (Level 5: above 60% growth control rate) | 10 | 3 (Level 3: above 20% growth control rate) | 4 (Level 4: above 50% growth control rate) | 1 (Level 1: below 5% growth control rate) | 1 (Level 1: below 5% growth control rate) | 10 | 10 | 10 | 10 | 1 (Level 1: below 5% growth control rate)
CCc1nn(C)c(OC(=O)c2cn(C)nc2C)c1C(=O)c1ccc(C(F)(F)F)c(-n2cccn2)c1Cl [Compound 131] | 10 | 10 | 10 | 10 | 10 | 10 | 3 (Level 3: above 20% growth control rate) | 0 | 4 (Level 4: above 50% growth control rate) | 10 | 10 | 10 | 10 | 0
CCn1nc(C2CC2)c(C(=O)c2ccc(C(F)(F)F)c(-n3cccn3)c2Cl)c1O [Compound 134] | 10 | 10 | 10 | 10 | 6 (Level 6: above 70% growth control rate) | 9 (Level 9: above 95% growth control rate) | 2 (Level 2: 5%-20% growth control rate) | 1 (Level 1: below 5% growth control rate) | 3 (Level 3: above 20% growth control rate) | 10 | 10 | 10 | 10 | 1 (Level 1: below 5% growth control rate)
CCn1nc(C)c(C(=O)c2ccc(C(F)(F)F)c(-n3cc(C)cn3)c2Cl)c1O [Compound 138] | 7 (Level 7: above 80% growth control rate) | 10 | 10 | 0 | 10 | 5 (Level 5: above 60% growth control rate) | 5 (Level 5: above 60% growth control rate) | 1 (Level 1: below 5% growth control rate) | 2 (Level 2: 5%-20% growth control rate) | 10 | 10 | 10 | 10 | 1 (Level 1: below 5% growth control rate)
CCc1nn(C)c(O)c1C(=O)c1ccc(C(F)(F)F)c(-n2cc(C)cn2)c1Cl [Compound 140] | 10 | 10 | 7 (Level 7: above 80% growth control rate) | 10 | 8 (Level 8: above 90% growth control rate) | 8 (Level 8: above 90% growth control rate) | 1 (Level 1: below 5% growth control rate) | 0 | 0 | 10 | 10 | 10 | 10 | 0

Source: patent US11076594B2, “Pyrazolone compound or salt thereof, preparation method therefor, herbicide composition and use thereof” (QINGDAO KINGAGROOT CHEMICAL COMPOUNDS CO., LTD., priority 2015, dated 2021)
